Experimental data: ChEMBL document CHEMBL6078617, “Discovery of MK-1084: An Orally Bioavailable and Low-Dose KRASG12C Inhibitor” (J Med Chem, 2024)
Activity calls are given as the source filed them. The rule behind the calls is not given here.

Legend:
GTPase KRas [1] = target: T1, GTPase KRas (Homo sapiens, UniProt P01116, G12C); assay: Inhibition of recombinant biotinylated KRAS G12C mutant (unknown origin) assessed as human SOS catalyzed nucleotide exchange measured after 60 mins by TR-FRET based guanine nucleotide exchange assay
T1 sequence (P01116 whole entry G12C): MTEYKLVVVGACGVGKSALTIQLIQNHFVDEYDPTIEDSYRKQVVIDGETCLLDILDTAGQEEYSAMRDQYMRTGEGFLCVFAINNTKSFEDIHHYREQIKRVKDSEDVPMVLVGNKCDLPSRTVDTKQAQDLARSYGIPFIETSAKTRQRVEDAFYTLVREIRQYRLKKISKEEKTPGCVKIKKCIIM

GTPase KRas [2] = target: T1, GTPase KRas; assay: Inhibition of KRAS G12C mutant in human NCI-H358 cells assessed as reduction in Erk1/2 phosphorylation level measured for 8 hrs by Western blot analysis; type: cell-based
[3] = Plasma clearance in fasted Wistar-Han rat measured up to 24 hrs by LC-MS/MS analysis; type: ADME
[4] = Oral bioavailability in male Beagle dog measured up to 24 hrs by LC-MS/MS analysis; type: ADME, organism-based, Canis lupus familiaris; details: in vivo
[5] = Unbound plasma clearance in fasted Wistar-Han rat measured up to 24 hrs by LC-MS/MS analysis; type: ADME
[6] = Apparent permeability in MDCK-II cells; type: ADME, cell-based, Canis lupus familiaris; details: dog
[7] = MRT in fasted Wistar-Han rat measured up to 24 hrs by LC-MS/MS analysis; type: ADME; details: in vivo
[8] = Plasma clearance in male Beagle dog measured up to 24 hrs by LC-MS/MS analysis; type: ADME, Canis lupus familiaris
[9] = Oral bioavailability in fasted Wistar-Han rat measured up to 24 hrs by LC-MS/MS analysis; type: ADME, organism-based; details: in vivo
[10] = MRT in male Beagle dog measured up to 24 hrs by LC-MS/MS analysis; type: ADME, Canis lupus familiaris; details: in vivo
[11] = Unbound plasma clearance in male Beagle dog measured up to 24 hrs by LC-MS/MS analysis; type: ADME, Canis lupus familiaris
[12] = Oral bioavailability in fasted Wistar-Han rat measured up to 24 hrs pre-dosed with ABT by LC-MS/MS analysis; type: ADME, organism-based; details: in vivo
PDX LU2512 = assay: In vivo antitumor activity against patient-derived PDX LU2512 cells xenografted in rat model assessed as decrease in tumor volume at 30 mg/kg, po qd measured up to 21 days; type: functional, organism-based; details: Homo sapiens, time <= 21.0 day
MIA PaCa-2 = assay: In vivo antitumor activity against […] cells xenografted in rat model assessed as decrease in tumor volume at 30 mg/kg, po qd measured up to 21 days; type: functional, organism-based; details: Homo sapiens, time <= 21.0 day
PDX LU2529 = assay: In vivo antitumor activity against patient-derived PDX LU2529 cells xenografted in rat model assessed as decrease in tumor volume at 30 mg/kg, po qd measured up to 21 days; type: functional, organism-based; details: Homo sapiens, time <= 21.0 day

Row | Compound | IC50 (GTPase KRas [1]) [nM] | IC50 (GTPase KRas [2]) [nM] | clearance [3] [mL/min/kg] | bioavailability [4] [%] | CL free [5] [mL/min/kg] | Papp [6] [×10⁻⁶ cm/s] | MRT [7] [h] | clearance [8] [mL/min/kg] | bioavailability [9] [%] | MRT [10] [h] | CL free [11] [mL/min/kg] | bioavailability [12] [%] | Activity (PDX LU2512) | Activity (MIA PaCa-2) | Activity (PDX LU2529)
1 | C=CC(=O)N1CCN(c2nc(=O)n3c4nc(c(F)cc24)-c2c(F)cccc2OCCCc2ccnc(C(C)C)c2-3)[C@@H](C)C1 | 4.3 | 5.4 |  |  |  |  |  |  |  |  |  |  |  |  | 
2 | C=CC(=O)N1C[C@H](C)N(c2nc(=O)n3c4nc(c(F)cc24)-c2c(F)cc(F)cc2OCC(F)(F)CCc2ccnc(C(C)C)c2-3)C[C@H]1C | 1.1 | 8.9 | 10 | 76 | 270 | 31 | 2.6 | 9.7 | 53 | 2.5 | 194 |  |  |  | 
3 | C=CC(=O)N1CCN(c2nc(=O)n3c4nc(c(Cl)cc24)-c2c(F)cccc2OCCc2ccccc2-3)[C@@H](C)C1 | 1410 | 3830 |  |  |  |  |  |  |  |  |  |  |  |  | 
4 | C=CC(=O)N1C[C@H](C)N(c2nc(=O)n3c4nc(c(F)cc24)-c2c(F)cccc2OCCOc2ccnc(C(C)C)c2-3)C[C@H]1C | 6.5 | 11 | 49 |  | 299 | 8 | 0.6 |  | 5 |  |  | 11 |  |  | 
5 | C=CC(=O)N1C[C@H](C)N(c2nc(=O)n3c4nc(c(Cl)cc24)-c2c(F)ccc(F)c2OCCOc2ccnc(C(C)C)c2-3)C[C@H]1C | 1.2 | 9 | 22 | 58 | 606 | 20 | 1.1 | 28 | 61 | 1.1 | 243 |  | Active | Active | Active
6 | C=CC(=O)N1C[C@H](C)N(c2nc(=O)n3c4nc(c(F)cc24)-c2c(F)ccc(F)c2OCCOc2ccnc(C(C)C)c2-3)C[C@H]1C | 3.5 | 28 | 13 | 67 | 126 | 15 | 1.4 | 32 | 25 | 0.8 | 130 |  |  |  | 
7 | C=CC(=O)N1C[C@H](C)N(c2nc(=O)n3c4nc(c(F)cc24)-c2c(F)cccc2OCCCc2ccnc(C(C)C)c2-3)C[C@H]1C | 1.7 | 7.4 |  |  |  |  |  |  |  |  |  |  |  |  | 
8 | C=CC(=O)N1C[C@H](C)N(c2nc(=O)n3c4nc(c(F)cc24)-c2c(F)cccc2OCC(F)(F)CCc2ccnc(C(C)C)c2-3)C[C@H]1C | 2.9 | 6.6 | 9.7 | 59 | 113 | 23 | 2.3 | 18 | 12 | 2.2 | 160 |  |  |  | 
9 | C=CC(=O)N1C[C@H](C)N(c2nc(=O)n3c4nc(c(F)cc24)-c2c(F)cc(F)cc2OCCOc2ccnc(C(C)C)c2-3)C[C@H]1C | 6.9 | 16 | 40 |  | 407 |  | 0.7 |  | 12 |  |  |  |  |  | 

Further compounds by falling IC50 (GTPase KRas [1]), results first:

Row | IC50 (GTPase KRas [1]) [nM] | IC50 (GTPase KRas [2]) [nM] | clearance [3] [mL/min/kg] | bioavailability [4] [%] | CL free [5] [mL/min/kg] | Papp [6] [×10⁻⁶ cm/s] | MRT [7] [h] | clearance [8] [mL/min/kg] | bioavailability [9] [%] | MRT [10] [h] | CL free [11] [mL/min/kg] | bioavailability [12] [%] | Compound | Activity (PDX LU2512) | Activity (MIA PaCa-2) | Activity (PDX LU2529)
10 | 11 | 21 |  |  |  |  |  |  |  |  |  |  | C=CC(=O)N1CCN(c2nc(=O)n3c4nc(c(F)cc24)-c2c(F)cccc2OCCCOc2ccnc(C(C)C)c2-3)[C@@H](C)C1 |  |  | 
11 | 5.3 | 10 | 26 |  | 434 | 9 | 0.7 |  | 10 |  |  |  | C=CC(=O)N1C[C@H](C)N(c2nc(=O)n3c4nc(c(F)cc24)-c2c(ccc(F)c2F)OCCOc2ccnc(C(C)C)c2-3)C[C@H]1C |  |  | 
12 | 4.5 | 30 | 12 |  | 148 | 13 | 0.9 |  | 17 |  |  |  | C=CC(=O)N1C[C@H](C)N(c2nc(=O)n3c4nc(c(C)cc24)-c2c(F)ccc(F)c2OCCOc2ccnc(C(C)C)c2-3)C[C@H]1C |  |  | 
13 | 3 | 5.2 | 13 | 80 | 213 | 25 | 1.8 | 7.3 | 42 | 3.3 | 128 |  | C=CC(=O)N1C[C@H](C)N(c2nc(=O)n3c4nc(c(F)cc24)-c2c(ccc(F)c2F)OCC(F)(F)CCc2ccnc(C(C)C)c2-3)C[C@H]1C |  |  | 
14 | 1.2 | 4.8 | 80 |  | 770 | 17 | 0.4 |  | 2 |  |  | 50 | C=CC(=O)N1CCN(c2nc(=O)n3c4nc(c(F)cc24)-c2c(F)cccc2OCCCCc2ccnc(C(C)C)c2-3)[C@@H](C)C1 |  |  | 
